In US20220380341A1, “INHIBITORS OF HIV-1 NEF FOR THE TREATMENT OF HIV DISEASE” (priority 2018, published 2022):
Where two headings read alike, the source gives them in different places.

Key:
HIV-1NL4-3 = assay: HIV-1 infectivity assay in TZM-bl reporter cell line (LTR-luciferase, 48 h); format: cell-based; conditions: Human immunodeficiency virus 1, TZM-bl
Procedure, shortened: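 TZM-bl cells (HIV-1 LTR-luciferase) infected with HIV-1NL4-3 with compound at 1 μM; luciferase read 48 h later. Percent inhibition normalized to DMSO wild-type infection (0%) and Nef-defective HIV-1 infection (100% of Nef-dependent effect). Viability in uninfected TZM-bl cells by Cell Titer Blue.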

TZM-bl cell line = format: cell-based; conditions: human, 1 μM
Procedure, shortened: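 Nef-dependent infectivity in TZM-bl cells: HIV-1NL4-3 infection with 1 μM compound, luciferase read at 48 h, normalized against DMSO wild-type and Nef-defective controls. Compound cytotoxicity in uninfected cells measured by Cell Titer Blue.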

HIV-1 NefNL4-3 = HIV-1 NefNL4-3 (Human immunodeficiency virus type 1 group M subtype B, UniProt P03406, A33V/T15A/T51N/V11I); assay: Surface plasmon resonance binding to recombinant full-length Nef (NL4-3); conditions: for RU30/RUNef (extent of binding): response units at 30 μM relative to Nef immobilized on the SPR chip; for Nef NL4-3 Binding, SPR 1:1 or 2-site fitting KD1: 1:1 Langmuir fit where the KD2 cell says '1 to 1 fitting', else 2-site fit
[1] = 1.0 μM, TZM-bl reporter cell line, Table 4, read-out: % Infectivity Inhibition
[2] = 48 h, Table 1, TZM-bl cells, 1 μM, 48 h, 100% = Nef-defective HIV-1, read-out: HIV-1 Infectivity % Inhibition Norm. to Δ-Nef @ 1 μM
[3] = KD, M, Table 4, SPR fit 1:1 Langmuir, KD = koff/kon
[4] = Table 4, 1:1 Langmuir fit, T = 1/koff
[5] = KD, M, Table 4, SPR fit 2-step induced fit, KD = koff/kon × koff2/(koff2 + kon2)
[6] = Nef NL4-3 Binding, SPR 2-state fitting KD, Table 1, 2-step induced-fit model
[7] = Table 4, 2-step induced fit, T = 1/koff2
[8] = read-out: Nef NL4-3 Binding, SPR 1:1 or 2-site fitting KD2, Table 1, 2-site fit, second component

Row | Structure (SMILES) | inhibition at 1 µM (HIV-1NL4-3; [1]) [%] | inhibition at 1 µM (HIV-1NL4-3; [2]) [%] | % Cell Viability (TZM-bl cell line) [%] | Percent Viability @ 1 μM (TZM-bl cells) (TZM-bl cell line) [%] | Kd (HIV-1 NefNL4-3) [nM] | Kd (HIV-1 NefNL4-3; [3]) [nM] | T, minutes (residence time) (HIV-1 NefNL4-3; [4]) | RU30/RUNef (extent of binding) (HIV-1 NefNL4-3) | Kd (HIV-1 NefNL4-3; [5]) [nM] | Kd (HIV-1 NefNL4-3; Nef NL4-3 Binding, SPR 1:1 or 2-site fitting KD2, Table 1, 2-site fit, second component) [nM] | Kd (HIV-1 NefNL4-3; [6]) [nM] | T, minutes (residence time) (HIV-1 NefNL4-3; [7]) | Kd (HIV-1 NefNL4-3; [8]) [nM] | Nef NL4-3 Binding, SPR 1:1 or 2-site fitting KD1 (HIV-1 NefNL4-3; Table 1)
1 | CS(=O)(=O)N1CCC(c2nn(-c3nc4cc(Cl)ccc4[nH]3)c(O)c2CCn2nccn2)CC1 [Compound I-707, 1-(5-chloro-1H-1,3-benzodiazol-2-yl)-3-(1-methanesulfonylpiperidin-4-yl)-4-[2-(2H-1,2,3-triazol-2-yl)ethyl]-1H-pyrazol-5-ol] | 0 | -10.6 | 100 | 109.3 | 1980 | 1980 | 4.33E + 00 minutes | 1.81E- 03 | – | – | – | – | – | –
2 | COC(=O)N1CCC(CCc2c(-c3ccc(C(F)(F)F)cn3)nn(-c3nc4ccccc4[nH]3)c2O)CC1 [Compound I-715, methyl 4-{2-[1-(1H-1,3-benzodiazol-2-yl)-5-hydroxy-3-[5-(trifluoromethyl)pyridin-2-yl]-1H-pyrazol-4-yl]ethyl}piperidine-1-carboxylate] | 25.2 | 25.2 | 99.1 | 99.1 | 686 | – | – | 5.47E- 03 | 2510 | 1330 | 2510 | 3.76E + 00 minutes | – | –
3 | Oc1c(CCc2ccc(F)cc2)c(C2CCNCC2)nn1-c1nc2ccc(Cl)cc2[nH]1 [Compound I-503, 1-(5-chloro-1H-1,3-benzodiazol-2-yl)-4-[2-(4-fluorophenyl)ethyl]-3-(piperidin-4-yl)-1H-pyrazol-5-ol] | 0 | -94.1 | 90.7 | 90.7 | 256 | – | – | 1.05E- 02 | 0.617 | – | 0.511 | 3.18E + 04 minutes | 3020 | –
4 | Oc1c(CC2CCOCC2)c(C2CC(F)(F)C2)nn1-c1nc2ccccc2[nH]1 [Compound I-176, 1-(1H-1,3-benzodiazol-2-yl)-3-(3,3-difluorocyclobutyl)-4-[(oxan-4-yl)methyl]-1H-pyrazol-5-ol] | 0 | – | 98.4 | – | – | 2240 | 5.08E + 00 minutes | 1.52E- 03 | – | – | – | – | – | –
5 | Oc1c(CCc2ccc(F)cc2)c(CNCc2ccncc2)nn1-c1nc2ccccc2[nH]1 [Compound I-810, 1-(1H-1,3-benzodiazol-2-yl)-4-[2-(4-fluorophenyl)ethyl]-3-({[(pyridin-4-yl)methyl]amino}methyl)-1H-pyrazol-5-ol] | 42.8 | 42.8 | 100 | 101.3 | 70.7 | – | – | 3.75E- 03 | 3580 | – | 3580 | 5.97E + 00 minutes | 3190 | –
6 | Oc1c(CCc2ccc(F)cc2)c(-c2cccnc2)nn1-c1nc2ccccc2[nH]1 [Compound I-121, 1-(1H-1,3-benzodiazol-2-yl)-4-[2-(4-fluorophenyl)ethyl]-3-(pyridin-3-yl)-1H-pyrazol-5-ol] | 29.6 | 29.6 | 97.8 | 97.8 | 0.0383 | – | – | 7.40E- 03 | 474 | – | 474 | 2.58E + 01 minutes | 2610 | –
7 | Oc1c(CC2CCOCC2)c(C2CC2)nn1-c1nc2ccccc2[nH]1 [Compound I-174, 1-(1H-1,3-benzodiazol-2-yl)-3-cyclopropyl-4-[(oxan-4-yl)methyl]-1H-pyrazol-5-ol] | 11.9 | 11.9 | 100 | 101.5 | 1370 | 1370 | 6.54E + 00 minutes | 3.94E- 03 | – | – | – | – | – | –
8 | Oc1c(CCc2ccc(F)cc2)c(-c2cncc(Br)c2)nn1-c1nc2ccccc2[nH]1 [Compound I-118, 1-(1H-1,3-benzodiazol-2-yl)-3-(5-bromopyridin-3-yl)-4-[2-(4-fluorophenyl)ethyl]-1H-pyrazol-5-ol] | – | 101 | – | 81.6 | 95.6 | – | – | – | – | – | 0.216 | – | 17100 | –
9 | O=C(OCc1ccccc1)N1CCC(c2nn(-c3nc4ccncc4[nH]3)c(O)c2CCc2ccc(F)cc2)CC1 [Compound I-310, benzyl 4-{4-[2-(4-fluorophenyl)ethyl]-5-hydroxy-1-{3H-imidazo[4,5-c]pyridin-2-yl}-1H-pyrazol-3-yl}piperidine-1-carboxylate] | 36.6 | 36.6 | 100 | 105.6 | 50.2 | 50.2 | 3.56E + 02 minutes | 2.36E- 03 | – | – | – | – | – | –
10 | CC(C)(C)OC(=O)N1CCC(c2nn(-c3nc4cc(F)c(F)cc4[nH]3)c(O)c2CCc2ccc(F)cc2)CC1 [Compound I-219, tert-butyl 4-[1-(5,6-difluoro-1H-1,3-benzodiazol-2-yl)-4-[2-(4-fluorophenyl)ethyl]-5-hydroxy-1H-pyrazol-3-yl]piperidine-1-carboxylate] | 100 | 109 | 79.2 | 79.2 | – | – | – | 4.76E- 03 | 49.3 | – | 49.3 | 4.93E + 02 minutes | 3290 | –
11 | CN(C)C(=O)N1CCC(c2nn(-c3nc4ccccc4[nH]3)c(O)c2CCC2CCOCC2)CC1 [Compound I-739, 4-[1-(1H-1,3-benzodiazol-2-yl)-5-hydroxy-4-[2-(oxan-4-yl)ethyl]-1H-pyrazol-3-yl]-N,N-dimethylpiperidine-1-carboxamide] | – | -7 | – | 100.0 | – | – | – | – | – | – | – | – | – | No Interaction
12 | Oc1c(CCc2ccc(Br)cc2)c(-c2ccc(C(F)(F)F)cn2)nn1-c1nc2ccccc2[nH]1 [Compound I-147, 1-(1H-1,3-benzodiazol-2-yl)-4-[2-(4-bromophenyl)ethyl]-3-[5-(trifluoromethyl)pyridin-2-yl]-1H-pyrazol-5-ol] | 59.3 | 59.3 | 97.6 | 97.6 | 0.0752 | 0.0752 | 4.30E + 04 minutes | 2.11E- 03 | – | – | – | – | – | –
13 | Oc1c(CCc2ccc(F)cc2)c(-c2ccc(F)cc2)nn1-c1nc2cc(Cl)ccc2[nH]1 [Compound I-172, 1-(5-chloro-1H-1,3-benzodiazol-2-yl)-3-(4-fluoropheny1)-4-[2-(4-fluorophenyl)ethyl]-1H-pyrazol-5-ol] | 56 | 56 | 96.5 | 96.5 | 250 | – | – | 4.28E- 02 | 69.3 | – | 69.3 | 1.73E + 01 minutes | – | –
14 | Oc1c(CCc2ccc(F)cc2)c(-c2cnc(C(F)(F)F)nc2)nn1-c1nc2ccccc2[nH]1 [Compound I-126, 1-(1H-1,3-benzodiazol-2-yl)-4-[2-(4-fluorophenyl)ethyl]-3-[2-(trifluoromethyl)pyrimidin-5-yl]-1H-pyrazol-5-ol] | – | -13.9 | – | 107.8 | – | – | – | – | – | – | – | – | – | No Interaction
